Measurements published in patent publication US20250382305A1 (PTC THERAPEUTICS, INC., priority 2022, published 2025).

Legend:
[1] = tested on: Total ATXN3 (tATXN3) protein; assay: Endogenous Total ATXN3 (tATXN3) Protein Assay (MSD immunoassay of cell lysates); format: cell-based; details: average IC50, total ATXN3 protein in cell lysate after 48 h with compound (Table 1)
How it was run: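 Cells in DMEM/10% FBS were plated at 10,000 per well onto 7-point, 3.16-fold compound dilutions in duplicate for 48 h at 37° C, then lysed. Total ATXN3 in lysates was measured by MSD sandwich immunoassay: mouse anti-ATXN3 capture, rabbit anti-ATXN3 detection, SULFO-TAG anti-rabbit. Average IC50 was reported in star bins.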

ATXN3 pre-mRNA = assay: RT-qPCR Assay to Quantify Exon 4 Skipping in ATXN3 pre-mRNA in Cells; format: cell-based; details: percent exon 4 skipping in ATXN3 pre-mRNA, RT-qPCR of cell lysates; average IC50
How it was run: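 Cells plated at 10,000/well onto a 7-point, 3.16-fold DMSO dilution series (duplicates), incubated 24 h at 37 °C, then lysed. Exon 4 skipping measured by one-step RT-qPCR (48 °C RT, 40 cycles); IC50 interpolated from dose-response fit of percent skipping.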

| Compound | IC50 [1] [nM] | IC50 (ATXN3 pre-mRNA) [nM] |
| --- | --- | --- |
| N[C@H]1CC=CC[C@@H]1c1sc2c(NCc3nccs3)nc(Cl)nc2c1Cl [Compound 340, 6-((1S,6S)-6-aminocyclohex-3-en-1-yl)-2,7-dichloro-N-(thiazol-2-ylmethyl)thieno[3,2-d]pyrimidin-4-amine] | 30 to 300 | 30 to 300 |
| Cc1c([C@H]2CC=CC[C@@H]2N)sc2c(NCc3ccccc3F)cc(Cl)nc12 [Compound 341, 2-((1S,6S)-6-aminocyclohex-3-en-1-yl)-5-chloro-N-(2-fluorobenzyl)-3-methylthieno[3,2-b]pyridin-7-amine] | 30 to 300 | 30 to 300 |
| CC#CCNc1cc(Cl)nc2c(Br)c([C@H]3OCCC[C@@H]3N)sc12 [Compound 343, 2-((2S,3S)-3-aminotetrahydro-2H-pyran-2-yl)-3-bromo-N-(but-2-yn-1-yl)-5-chlorothieno[3,2-b]pyridin-7-amine] | 30 to 300 | 30 to 300 |
| C#Cc1c([C@@H]2CCCC[C@H]2N)sc2c(NCc3ccccc3)cc(Cl)nc12 [Compound 344, 2-((1R,2R)-2-aminocyclohexyl)-N-benzyl-5-chloro-3-ethynylthieno[3,2-b]pyridin-7-amine] | 30 to 300 | 30 to 300 |
| N[C@@H]1CC=CC[C@H]1c1sc2c(NCc3ccccc3)cc(Cl)nc2c1I [Compound 345, 2-((1R,6R)-6-aminocyclohex-3-en-1-yl)-N-benzyl-5-chloro-3-iodothieno[3,2-b]pyridin-7-amine] | 30 to 300 | 30 to 300 |
| N[C@H]1CC=CC[C@@H]1c1c(I)c2nc(Cl)nc(NCc3ccccc3)c2n1C(F)F [Compound 348, 6-((1S,6S)-6-aminocyclohex-3-en-1-yl)-N-benzyl-2-chloro-5-(difluoromethyl)-7-iodo-5H-pyrrolo[3,2-d]pyrimidin-4-amine] | 30 to 300 | 30 to 300 |
| CN(Cc1cccs1)c1cc(Cl)nc2c(C#CCCCO)c([C@H]3CC=CC[C@@H]3N)sc12 [Compound 349, 5-(2-((1S,6S)-6-aminocyclohex-3-en-1-yl)-5-chloro-7-(methyl(thiophen-2-ylmethyl)amino)thieno[3,2-b]pyridin-3-yl)pent-4-yn-1-ol] | 30 to 300 | 30 to 300 |
| Cn1c([C@H]2CCOC[C@@H]2N)c(Br)c2nc(Cl)cc(NCc3cccs3)c21 [Compound 351, 2-((3R,4S)-3-aminotetrahydro-2H-pyran-4-yl)-3-bromo-5-chloro-1-methyl-N-(thiophen-2-ylmethyl)-1H-pyrrolo[3,2-b]pyridin-7-amine] | 30 to 300 | 30 to 300 |
| N[C@H]1CC=CC[C@@H]1c1c(I)c2nc(Cl)cc(NCc3ccccc3)c2n1C(F)F [Compound 352, 2-((1S,6S)-6-aminocyclohex-3-en-1-yl)-N-benzyl-5-chloro-1-(difluoromethyl)-3-iodo-1H-pyrrolo[3,2-b]pyridin-7-amine] | 30 to 300 | 30 to 300 |
| Cc1c([C@H]2CC=C(C(=O)Nc3ccccc3)C[C@@H]2N)sc2c(NCc3cccs3)cc(Cl)nc12 [Compound 353, (4S,5S)-5-amino-4-(5-chloro-3-methyl-7-((thiophen-2-ylmethyl)amino)thieno[3,2-b]pyridin-2-yl)-N-phenylcyclohex-1-ene-1-carboxamide] | 30 to 300 | 30 to 300 |
| N[C@@H]1CCC[C@@H](O)[C@H]1c1sc2c(NCc3cccs3)cc(Cl)nc2c1Br [Compound 355, (1R,2S,3R)-3-amino-2-(3-bromo-5-chloro-7-((thiophen-2-ylmethyl)amino)thieno[3,2-b]pyridin-2-yl)cyclohexan-1-ol] | 30 to 300 | 30 to 300 |
| C#Cc1c([C@H]2CCCC[C@@H]2N)sc2c(NCc3ccco3)cc(Cl)nc12 [Compound 357, 2-((1S,2S)-2-aminocyclohexyl)-5-chloro-3-ethynyl-N-(furan-2-ylmethyl)thieno[3,2-b]pyridin-7-amine] | 30 to 300 | 30 to 300 |
| N[C@H]1CCCC[C@@H]1c1sc2c(NCC3=CCCC3)cc(Cl)nc2c1Br [Compound 361, 2-((1S,2S)-2-aminocyclohexyl)-3-bromo-5-chloro-N-(cyclopent-1-en-1-ylmethyl)thieno[3,2-b]pyridin-7-amine] | 30 to 300 | 30 to 300 |
| N[C@@H]1CC=CC[C@H]1c1sc2c(NCc3cccs3)nc(Cl)nc2c1I [Compound 362, 6-((1R,6R)-6-aminocyclohex-3-en-1-yl)-2-chloro-7-iodo-N-(thiophen-2-ylmethyl)thieno[3,2-d]pyrimidin-4-amine] | 30 to 300 | 30 to 300 |
| CC#CCNc1cc(Cl)nc2c(C)c([C@H]3CCCC[C@@H]3N)sc12 [Compound 363, 2-((1S,2S)-2-aminocyclohexyl)-N-(but-2-yn-1-yl)-5-chloro-3-methylthieno[3,2-b]pyridin-7-amine] | 30 to 300 | 30 to 300 |
| N[C@H]1COCC[C@@H]1c1sc2c(NCc3ccncc3)cc(Cl)nc2c1Br [Compound 364, 2-((3R,4S)-3-aminotetrahydro-2H-pyran-4-yl)-3-bromo-5-chloro-N-(pyridin-4-ylmethyl)thieno[3,2-b]pyridin-7-amine] | 30 to 300 | 30 to 300 |
| COC(=O)CNc1cc(Cl)nc2c(Br)c([C@H]3CC=CC[C@@H]3N)sc12 [Compound 366, methyl (2-((1S,6S)-6-aminocyclohex-3-en-1-yl)-3-bromo-5-chlorothieno[3,2-b]pyridin-7-yl)glycinate] | 30 to 300 | 30 to 300 |
| N[C@@H]1CCCC[C@H]1c1sc2c(NCc3ccccc3)cc(Cl)nc2c1Cl [Compound 368, 2-((1R,2R)-2-aminocyclohexyl)-N-benzyl-3,5-dichlorothieno[3,2-b]pyridin-7-amine] | 30 to 300 | 30 to 300 |
| [2H]C1=C([2H])C([2H])([2H])[C@@H](c2sc3c(NCc4ccco4)cc(Cl)nc3c2Cl)[C@H](N)C1([2H])[2H] [Compound 369, 2-((1R,6R)-6-aminocyclohex-3-en-1-yl-2,2,3,4,5,5-d6)-3,5-dichloro-N-(furan-2-ylmethyl)thieno[3,2-b]pyridin-7-amine] | 30 to 300 | 30 to 300 |
| N[C@@H]1CC=CC[C@H]1c1sc2c(NCc3ccncc3)cc(Cl)nc2c1Br [Compound 373, 2-((1R,6R)-6-aminocyclohex-3-en-1-yl)-3-bromo-5-chloro-N-(pyridin-4-ylmethyl)thieno[3,2-b]pyridin-7-amine] | 30 to 300 | 30 to 300 |
| N[C@@H]1CC=CC[C@H]1c1sc2c(NCc3ccncc3F)cc(Cl)nc2c1Cl [Compound 376, 2-((1R,6R)-6-aminocyclohex-3-en-1-yl)-3,5-dichloro-N-((3-fluoropyridin-4-yl)methyl)thieno[3,2-b]pyridin-7-amine] | 30 to 300 | 30 to 300 |
| N[C@H]1CC=C[C@@H](O)[C@@H]1c1sc2c(NCc3cccs3)cc(Cl)nc2c1Cl [Compound 377, (1R,5S,6R)-5-amino-6-(3,5-dichloro-7-((thiophen-2-ylmethyl)amino)thieno[3,2-b]pyridin-2-yl)cyclohex-2-en-1-ol] | 30 to 300 | 30 to 300 |
| C/C=C/CNc1cc(Cl)nc2c(C)c([C@H]3CC=CC[C@@H]3N)sc12 [Compound 378, 2-((1S,6S)-6-aminocyclohex-3-en-1-yl)-N-((E)-but-2-en-1-yl)-5-chloro-3-methylthieno[3,2-b]pyridin-7-amine] | 30 to 300 | 30 to 300 |
